# Measured values published in patent publication US20150291598A1 (NOVARTIS AG, priority 2012, published 2015).
# Test system: P. falciparum (NF54 or 3D7 strain)
# Test: Assay for P. falciparum proliferation in infected human blood cells (SYBR Green)
# Assay type: cell-based, Plasmodium falciparum
# Conditions: Plasmodium falciparum, Erythrocyte, 72 h, NF54 or 3D7 infected human erythrocytes, 72 hours; read-out: EC50 (nM), inhibitory efficacy in delaying P. falciparum proliferation in infected human blood cells
# Method in brief: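 NF54 or 3D7 parasites in O+ human erythrocytes at 2.5% hematocrit and 0.3% parasitemia final, exposed to compounds 72 h at 37 °C under 93% N2/4% CO2/3% O2.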
row,SMILES,EC50 [nM]
1,"COC[C@@H]1CCCN1c1ccc(N(C)C(=O)c2cn3c(-c4ccc(C(F)(F)F)cc4)cnc3cn2)cn1 [Compound 359, N-{6-[(2S)-2-(methoxymethyl)pyrrolidin-1-yl]pyridin-3-yl}-N-methyl-3-[4-(trifluoromethyl)phenyl]imidazo[1,2-a]pyrazine-6-carboxamide]",> 10000
2,"CN(C(=O)c1cn2c(-c3ccc4c(c3)OCCO4)cnc2cn1)c1ccc(Cl)nc1 [Compound 360, N-(6-chloropyridin-3-yl)-3-(2,3-dihydro-1,4-benzodioxin-6-yl)-N-methylimidazo[1,2-a]pyrazine-6-carboxamide]",> 4570
3,"CC(C)c1nc(-c2cnc3cnc(C(=O)N(C)c4ccc(Cl)nc4)cn23)cs1 [Compound 364, N-(6-chloropyridin-3-yl)-N-methyl-3-[2-(propan-2-yl)-1,3-thiazol-4-yl]imidazo[1,2-a]pyrazine-6-carboxamide]",8240
4,"CN(C(=O)c1ccc(OC(F)(F)F)cc1)c1cn2c(-c3ccc(C(F)(F)F)cc3)cnc2cn1 [Compound 366, N-methyl-4-(trifluoromethoxy)-N-{3-[4-(trifluoromethyl)phenyl]imidazo[1,2-a]pyrazin-6-yl}benzamide]",> 6250
5,"Cc1nnc(-c2ccc(-c3cnc4cnc(C(=O)N(C)c5ccc(Cl)nc5)cn34)cn2)o1 [Compound 367, N-(6-chloropyridin-3-yl)-N-methyl-3-[6-(5-methyl-1,3,4-oxadiazol-2-yl)pyridin-3-yl]imidazo[1,2-a]pyrazine-6-carboxamide]",> 9280
6,"CN(Cc1ccccc1)C(=O)c1cn2c(-c3ccc(C(F)(F)F)cc3)cnc2cn1 [Compound 370, N-benzyl-N-methyl-3-[4-(trifluoromethyl)phenyl]imidazo[1,2-a]pyrazine-6-carboxamide]",8200
7,"NC(=O)c1ccc(NC(=O)c2cn3c(-c4ccc(C(F)(F)F)cc4)cnc3cn2)nc1 [Compound 371, 2-C-3-[4-(trifluoromethyl)phenyl]imidazo[1,2-a]pyrazine-6-pyridine-2,5-dicarboxamide]",> 10000
8,"CN(C(=O)c1cn2c(-c3ccc(OCCN)cc3)cnc2cn1)c1ccc(C#N)cc1 [Compound 372, 3-[4-(2-aminoethoxyl)phenyl]-N-(4-cyanophenyl)-N-methylimidazo[1,2-a]pyrazine-6-carboxamide]",> 10000
9,"CC(=O)Nc1ccc(-c2cnc3cnc(C(=O)N(C)c4ccc(C)cn4)cn23)cn1 [Compound 373, 3-(6-acetamidopyridin-3-yl)-N-methyl-N-(5-methylpyridin-2-yl)imidazo[1,2-a]pyrazine-6-carboxamide]",> 9880
10,"O=C(c1cn2c(-c3ccc(C(F)(F)F)cc3)cnc2cn1)N1CCOCC1 [Compound 374, 4-({3-[4-(trifluoromethyl)phenyl]imidazo[1,2-a]pyrazin-6-yl}carbonyl)morpholine]",> 9820
11,"CN(C(=O)c1cn2c(-c3ccc(C(F)(F)F)cc3)cnc2cn1)c1ccc(CN)cc1 [Compound 375, N-[4-(aminomethyl)phenyl]-N-methyl-3-[4-(trifluoromethyl)phenyl]imidazo[1,2-a]pyrazine-6-carboxamide]",> 6830
12,"Cc1nc2cnc(C(=O)Nc3ccc(C#N)cc3)cn2c1-c1ccc(C(F)(F)F)cc1 [Compound 376, N-(4-cyanophenyl)-2-methyl-3-[4-(trifluoromethyl)phenyl]imidazo[1,2-a]pyrazine-6-carboxamide]",9490
13,"Cc1cc(-c2cnc3cnc(C(=O)N(C)c4ccc(C#N)cc4)cn23)ccn1 [Compound 378, N-(4-cyanophenyl)-N-methyl-3-(2-methylpyridin-4-yl)imidazo[1,2-a]pyrazine-6-carboxamide]",> 7030
14,"CN(C(=O)c1cn2c(-c3ccc(C(F)(F)F)cc3)cnc2cn1)c1ccc(C2CCC2)cn1 [Compound 382, N-(5-cyclobutylpyridin-2-yl)-N-methyl-3-[4-(trifluoromethyl)phenyl]imidazo[1,2-a]pyrazine-6-carboxamide]",8400
15,"O=C(NCc1ccc(N2CCOCC2)cc1)c1cn2c(-c3ccc(C(F)(F)F)cc3)cnc2cn1 [Compound 383, N-{[4-(morpholin-4-yl)phenyl]methyl}-3-[4-(trifluoromethyl)phenyl]imidazo[1,2-a]pyrazine-6-carboxamide]",> 10000
16,"CN(C(=O)c1cn2c(-c3ccncc3)cnc2cn1)c1ccc(C#N)cc1 [Compound 385, -(4-cyanophenyl)-N-methyl-3-(pyridin-4-yl)imidazo[1,2-a]pyrazine-6-carboxamide]",> 10000
17,"N#Cc1ccc(N(CCN)C(=O)c2cn3c(-c4ccc(C(F)(F)F)cc4)cnc3cn2)cc1 [Compound 386, N-(2-aminoethyl)-N-(4-cyanophenyl)-3-[4-(trifluoromethyl)phenyl]imidazo[1,2-a]pyrazine-6-carboxamide]",> 10000
18,"CN(C(=O)c1cn2c(-c3cc4ccccc4[nH]3)cnc2cn1)c1ccc(Cl)nc1 [Compound 387, N-(6-chloropyridin-3-yl)-3-(1H-indol-2-yl)-N-methylimidazo[1,2-a]pyrazine-6-carboxamide]",> 10000

# Results, then the compound that gave them:
row,EC50 [nM],SMILES
1,5150,"CC(=O)Nc1ccc(-c2cnc3cnc(C(=O)N(C)c4ccc(C)cn4)cn23)cc1 [Compound 361, 3-(4-acetamidophenyl)-N-methyl-N-(5-methylpyridin-2-yl)imidazo[1,2-a]pyrazine-6-carboxamide]"
2,6470,"N#Cc1ccc(CNC(=O)c2cn3c(-c4ccc(C(F)(F)F)cc4)cnc3cn2)cc1 [Compound 362, -[(4-cyanophenyl)methyl]-3-[4-(trifluoromethyl)phenyl]imidazo[1,2-a]pyrazine-6-carboxamide]"
3,7020,"CC(C)S(=O)(=O)Nc1ccc(-c2cnc3cnc(C(=O)N(C)c4ccc(C#N)cc4)cn23)cc1 [Compound 363, N-(4-cyanophenyl)-N-methyl-3-[4-(propane-2-sulfonamido)phenyl]imidazo[1,2-a]pyrazine-6-carboxamide]"
4,6140,"CN(C(=O)c1cn2c(-c3ccc(C(F)(F)F)cc3)cnc2cn1)c1ccc(-n2cncn2)nc1 [Compound 365, N-methyl-N-[6-(1H-1,2,4-triazol-1-yl)pyridin-3-yl]-3-[4-(trifluoromethyl)phenyl]imidazo[1,2-a]pyrazine-6-carboxamide]"
5,7040,"CCn1nccc1NC(=O)c1cn2c(-c3ccc(C(F)(F)F)cc3)cnc2cn1 [Compound 368, N-(1-ethyl-1H-pyrazol-5-yl)-3-[4-(trifluoromethyl)phenyl]imidazo[1,2-a]pyrazine-6-carboxamide]"
6,1160,"CN(C(=O)c1cn2c(-c3ccc(C#N)cc3)cnc2cn1)c1ccc(C(F)(F)F)cc1 [Compound 369, 3-(4-cyanophenyl)-N-methyl-N-[4-(trifluoromethyl)phenyl]imidazo[1,2-a]pyrazine-6-carboxamide]"
7,8190,"CN(C(=O)c1cn2c(-c3ccc(C#N)cc3)cnc2cn1)c1ccc(C#N)cc1 [Compound 377, N,3-bis(4-cyanophenyl)-N-methylimidazo[1,2-a]pyrazine-6-carboxamide]"
8,6260,"CN(C(=O)c1cn2c(-c3ccc4c(c3)CC(=O)N4)cnc2cn1)c1ccc(Cl)nc1 [Compound 379, N-(6-chloropyridin-3-yl)-N-methyl-3-(2-oxo-2,3-dihydro-1H-indol-5-yl)imidazo[1,2-a]pyrazine-6-carboxamide]"
9,4500,"CN(C(=O)c1cn2c(-c3cnc(N)nc3)cnc2cn1)c1ccc(C#N)cc1 [Compound 380, 3-(2-aminopyrimidin-5-yl)-N-(4-cyanophenyl)-N-methylimidazo[1,2-a]pyrazine-6-carboxamide]"
10,5110,"C=Cc1cnc2cnc(C(=O)N(C)c3ccc(Cl)nc3)cn12 [Compound 381, N-(6-chloropyridin-3-yl)-3-ethenyl-N-methylimidazo[1,2-a]pyrazine-6-carboxamide]"
11,6620,"CN(C(=O)c1cn2c(-c3ccc(C(F)(F)F)cc3)cnc2cn1)c1ccc(C(C)(C)C)nc1 [Compound 384, N-(6-tert-butylpyridin-3-yl)-N-methyl-3-[4-(trifluoromethyl)phenyl]imidazo[1,2-a]pyrazine-6-carboxamide]"
12,762,"CN(C)Cc1ccc(-c2cnc3cnc(C(=O)N(C)c4ccc(Cl)nc4)cn23)cc1 [Compound 388, N-(6-chloropyridin-3-yl)-3-{4-[(dimethylamino)methyl]phenyl}-N-methylimidazo[1,2-a]pyrazine-6-carboxamide]"
13,2000,"N#Cc1nc[nH]c1NC(=O)c1cn2c(-c3ccc(C(F)(F)F)cc3)cnc2cn1 [Compound 389, N-(4-cyano-1H-imidazol-5-yl)-3-[4-(trifluoromethyl)phenyl]imidazo[1,2-a]pyrazine-6-carboxamide]"
14,2650,"Cc1cccnc1N(C)C(=O)c1cn2c(-c3ccc(C(F)(F)F)cc3)cnc2cn1 [Compound 390, N-methyl-N-(3-methylpyridin-2-yl)-3-[4-(trifluoromethyl)phenyl]imidazo[1,2-a]pyrazine-6-carboxamide]"
15,2910,"CN(C(=O)c1cn2c(-c3cnc4c(cnn4C)c3)cnc2cn1)c1ccc(C#N)cc1 [Compound 391, N-(4-cyanophenyl)-N-methyl-3-{1-methyl-1H-pyrazolo[3,4-b]pyridin-5-yl}imidazo[1,2-a]pyrazine-6-carboxamide]"
16,3250,"FC(F)(F)c1ccc(-c2cnc3cnc(CN4CCOCC4)cn23)cc1 [Compound 392, 4-({3-[4-(trifluoromethyl)phenyl]imidazo[1,2-a]pyrazin-6-yl}methyl)morpholine]"
17,3940,"CN(C(=O)c1cn2c(-c3ccc(C(N)=O)nc3)cnc2cn1)c1ccc(C#N)cc1 [Compound 393, 5-{6-[(4-cyanophenyl)(methyl)carbamoyl]imidazo[1,2-a]pyrazin-3-yl}pyridine-2-carboxamide]"
18,4910,"CN(C)c1ccc(N(C)C(=O)c2cn3c(-c4ccc(C(F)(F)F)cc4)cnc3cn2)cn1 [Compound 394, N-[6-(dimethylamino)pyridin-3-yl]-N-methyl-3-[4-(trifluoromethyl)phenyl]imidazo[1,2-a]pyrazine-6-carboxamide]"
